Measured values from ChEMBL document CHEMBL1148975, “Ancistrobenomine a, the first naphthylisoquinoline oxygenated at Me-3, and related 5,1'-coupled alkaloids, from the "new" plant species ancistrocladusbenomensis” (J Nat Prod, 2004).
Converted amounts (≈) assume the structure as drawn.

Columns and labels:
[1] = test system: L6; test: Cytotoxicity against rat L6 cells; assay type: cell-based
[2] = test system: Leishmania donovani; test: Antileishmanial activity against Leishmania donovani; assay type: functional, organism-based
[3] = test system: Plasmodium falciparum; test: Antiplasmodial activity against Plasmodium falciparum K1; assay type: functional, organism-based
[4] = test system: Trypanosoma brucei rhodesiense; test: Antitrypanosomal activity against Trypanosoma brucei rhodesiense; assay type: functional, organism-based
[5] = test system: Trypanosoma cruzi; test: Antitrypanosomal activity against Trypanosoma cruzi; assay type: functional, organism-based

IC50 [2] [µg/mL] | IC50 [3] [µg/mL] | IC50 [4] [µg/mL] | IC50 [5] [µg/mL] | SMILES | MIC [1] [µg/mL]
18.8 (≈ 46.1 µM) | 0.51 (≈ 1.25 µM) | 2.2 (≈ 5.4 µM) | 36.4 (≈ 89.3 µM) | COc1cc(O)c(-c2c(C)cc(OC)c3c(O)cccc23)c2c1[C@@H](C)N(C)[C@@H](C)C2 | 15.5 (≈ 38 µM)
> 30 | 2.18 (≈ 5.38 µM) | 14.7 (≈ 36.3 µM) | 23.4 (≈ 57.7 µM) | COc1cccc2c(-c3c(O)cc(OC)c4c(C)nc(CO)cc34)c(C)cc(O)c12 [6-O-DEMETHYLANCISTROBENOMINE A] | 59.9 (≈ 148 µM)
> 10 | 0.76 (≈ 1.81 µM) | 1.3 (≈ 3.1 µM) | 4.8 (≈ 11.4 µM) | COc1cc(OC)c2c(C)nc(CO)cc2c1-c1c(C)cc(O)c2c(OC)cccc12 [ANCISTROBENOMINE A] | 12.3 (≈ 29.3 µM)

SMILES | IC50 [2] [µg/mL] | IC50 [3] [µg/mL] | IC50 [4] [µg/mL] | IC50 [5] [µg/mL] | MIC [1] [µg/mL]
Nc1nc(N)nc(Nc2ccc([As]3SCC(CO)S3)cc2)n1 (stereo unspecified) [MELARSOPROL] | – | – | 0.00095 | – | –
